Experimental data taken from ChEMBL document CHEMBL5370570, “HIV-1 Integrase Inhibitor, Dihydroobionin B, and the Investigation of Its Extraordinary Specific Rotation” (J Nat Prod, 2023).
Calls of active or inactive are those of the source. No cut-off for these calls is given here.

Assays:
[1] = Cytotoxicity against human HEK293T cells assessed as reduction in cell viability incubated for 48 hrs by WST assay; type: toxicity, cell-based, HEK-293T; settings: read-out: LC50
Bipolaris oryzae = experiment: Antifungal activity against Bipolaris oryzae at 50 ug assessed as zone of inhibition incubated after 5 days at 25 degreeC by paper disk method; type: functional; settings: for zone of inhibition at 50 µg/disc: 120 h, time 5 day, read-out: IZ
[2] = target: Human immunodeficiency virus type 1 integrase (Human immunodeficiency virus 1, UniProt Q7ZJM1); experiment: Inhibition of HIV-1 integrase expressed in HEK293T co-transfected with CS-II Luci vector incubated for 48 hrs by Bright-Glo luciferase assay; type: cell-based
Chain of Human immunodeficiency virus type 1 integrase (Q7ZJM1 whole entry): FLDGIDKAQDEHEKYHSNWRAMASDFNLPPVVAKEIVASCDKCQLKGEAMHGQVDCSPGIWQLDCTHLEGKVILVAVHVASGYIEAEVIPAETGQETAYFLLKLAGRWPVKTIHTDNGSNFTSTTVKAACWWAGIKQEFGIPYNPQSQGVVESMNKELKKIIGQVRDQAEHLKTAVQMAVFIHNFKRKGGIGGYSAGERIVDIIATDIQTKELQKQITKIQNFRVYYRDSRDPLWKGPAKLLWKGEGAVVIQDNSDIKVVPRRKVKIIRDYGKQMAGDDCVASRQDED

## CCCCCCC[C@H]1Cc2cc3c(c(O)c2CO1)C(=O)C(=O)C(OC)=C3
[1]
  CC50 at 48 h: > 250 µM
Bipolaris oryzae; dose 50.0 µg, time 5.0 day
  inhibition zone (IZ): inactive
[2]
  IC50: 0.44 µM

## CCCC/C=C/c1c(OC)cc(=O)oc1C
Bipolaris oryzae
  zone of inhibition at 50 µg/disc: 12 mm
[2]
  IC50: 250 µM

## CCCCCCc1c(OC)cc(=O)oc1C
Bipolaris oryzae
  zone of inhibition at 50 µg/disc: 12 mm
[2]
  IC50: 15 µM

## CCCCCc1cc(O)c(C)c(O)c1C=O
Bipolaris oryzae
  zone of inhibition at 50 µg/disc: 12 mm
[2]
  IC50: 13 µM
